The source of these data is US20030129753A1, “Chemical screening method” (priority 2002, published 2003).

The nature of the data set: solubility in ethanol by conventional methods. The data set is classed as physicochemical. The conditions noted are these: organic solvent or mixture, separate experiments by conventional methods. On the procedure:
The invention was tested on the sulfisoxazole/polyvinylpyrrolidone system in ethanol where sulfisoxazole was the active ingredient and polyvinylpyrrolidone was the carrier of choice. The total time required to evaporate ethanol for each sample was less than 30 seconds. […] This information is important because these solubility parameters determine the minimum amount (volume) of solvent required to co-dissolve the active ingredient and the carrier molecules. Next eight ethanol solutions were prepared of different sulfisoxazole to polyvinylpyrrolidone weight (molar) ratios.

SMILES strings stand for the structures. Converted amounts (≈) assume the structure as drawn.

As usually defined, the solubility is the dissolved amount per volume that the medium holds. Turning to `Cc1noc(NS(=O)(=O)c2ccc(N)cc2)c1C` [sulfisoxazole], the solubility turned out to be 16 mg/mL (≈ 59.9 mM).
